In patent publication US20060141027A1, “Sublingual administration of non-steroidal anti-inflammatory pharmacological substances” (priority 2003, published 2006):

Test: experimentation on patients: sublingual versus traditional oral administration of FANS
Format: in vivo
Conditions: sublingual administration compared with oral formulation of the same agent
Text: In the performed experimentation, the used sublingual preparations consisted of tablets which can be separated in two parts.

SMILES | therapeutic dose necessary for obtaining the desired anti-inflammatory effect
CC(C(=O)O)c1cccc(C(=O)c2ccccc2)c1 (centres unmarked) [ketoprofen] | reduction of the therapeutic dosage
CS(=O)(=O)Nc1ccc([N+](=O)[O-])cc1Oc1ccccc1 [nimesulid, nimesulide] | reduction of the therapeutic dosage
O=C(O)Cc1ccccc1Nc1c(Cl)cccc1Cl [diclofenac] | reduction of the therapeutic dosage
CC(=O)Nc1ccc(O)cc1 [paracetamol] | reduction of the therapeutic dosage
CC(C)Cc1ccc(C(C)C(=O)O)cc1 (centres unmarked) [ibuprofen] | reduction of the therapeutic dosage
